For experiment [1], the target named is washed human platelets (Homo sapiens, UniProt P05106+P08514). The experiment in a line: Inhibition of thrombin-induced platelet aggregation in washed human platelets. Format: cell-based. The conditions noted are these: for IC50: linear regression of dose response curve; for inhibition at 100 µM: peptide 10^-4 M. How it is done: In one assay, the peptides are tested for their inhibition of thrombin-induced platelet aggregation in washed human platelets. The % inhibition is determined for the test peptide by comparing the extent of platelet aggregation in the presence and absence of the peptide.
washed human platelets, sequence (P08514 32-1039): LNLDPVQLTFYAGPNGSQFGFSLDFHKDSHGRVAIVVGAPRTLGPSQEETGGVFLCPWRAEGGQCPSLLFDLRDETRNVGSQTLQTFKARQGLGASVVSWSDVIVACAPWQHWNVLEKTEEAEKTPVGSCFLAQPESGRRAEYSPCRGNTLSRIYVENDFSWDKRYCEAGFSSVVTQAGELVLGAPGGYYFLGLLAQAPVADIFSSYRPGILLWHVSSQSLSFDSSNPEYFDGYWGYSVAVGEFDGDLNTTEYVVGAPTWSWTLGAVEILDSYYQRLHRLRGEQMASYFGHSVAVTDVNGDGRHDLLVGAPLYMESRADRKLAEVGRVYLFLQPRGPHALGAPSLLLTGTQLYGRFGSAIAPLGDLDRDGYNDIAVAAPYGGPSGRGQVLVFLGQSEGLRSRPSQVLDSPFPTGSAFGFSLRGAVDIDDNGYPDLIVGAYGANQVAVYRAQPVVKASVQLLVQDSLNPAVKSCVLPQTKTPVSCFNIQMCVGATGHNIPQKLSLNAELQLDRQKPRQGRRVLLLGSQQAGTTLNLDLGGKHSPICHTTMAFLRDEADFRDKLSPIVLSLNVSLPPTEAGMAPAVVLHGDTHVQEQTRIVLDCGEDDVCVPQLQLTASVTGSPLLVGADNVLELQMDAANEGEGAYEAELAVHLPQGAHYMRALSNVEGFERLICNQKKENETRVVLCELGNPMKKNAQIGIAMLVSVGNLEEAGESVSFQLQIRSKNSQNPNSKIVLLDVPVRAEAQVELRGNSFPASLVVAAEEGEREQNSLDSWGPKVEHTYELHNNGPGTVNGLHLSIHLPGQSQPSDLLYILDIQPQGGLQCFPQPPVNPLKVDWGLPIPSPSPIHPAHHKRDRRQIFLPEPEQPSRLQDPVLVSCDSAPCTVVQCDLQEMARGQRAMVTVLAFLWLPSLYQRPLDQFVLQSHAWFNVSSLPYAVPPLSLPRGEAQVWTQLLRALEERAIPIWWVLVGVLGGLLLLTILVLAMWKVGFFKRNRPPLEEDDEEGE
washed human platelets, sequence (P05106 27-788): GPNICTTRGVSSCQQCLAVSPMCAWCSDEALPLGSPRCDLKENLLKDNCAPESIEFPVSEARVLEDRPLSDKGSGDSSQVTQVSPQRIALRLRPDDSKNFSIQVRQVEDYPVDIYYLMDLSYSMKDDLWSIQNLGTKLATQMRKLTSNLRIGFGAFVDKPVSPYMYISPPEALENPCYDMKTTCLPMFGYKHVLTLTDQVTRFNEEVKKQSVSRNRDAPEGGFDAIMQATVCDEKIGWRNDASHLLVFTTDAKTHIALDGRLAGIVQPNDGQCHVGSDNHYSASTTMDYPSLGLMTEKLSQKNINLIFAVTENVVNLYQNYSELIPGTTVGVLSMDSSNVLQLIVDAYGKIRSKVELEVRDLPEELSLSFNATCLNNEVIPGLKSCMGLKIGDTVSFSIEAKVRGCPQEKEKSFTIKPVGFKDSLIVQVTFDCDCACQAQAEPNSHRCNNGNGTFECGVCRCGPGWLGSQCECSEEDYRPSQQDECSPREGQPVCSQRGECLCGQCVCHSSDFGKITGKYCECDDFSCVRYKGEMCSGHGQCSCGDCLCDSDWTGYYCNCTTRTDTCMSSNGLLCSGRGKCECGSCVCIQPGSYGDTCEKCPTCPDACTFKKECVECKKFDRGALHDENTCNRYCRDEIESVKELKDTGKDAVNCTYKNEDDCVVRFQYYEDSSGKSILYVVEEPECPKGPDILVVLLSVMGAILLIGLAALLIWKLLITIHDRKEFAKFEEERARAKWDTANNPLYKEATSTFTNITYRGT
Platelet Preparation: 60 ml of whole blood is freshley drawn and anticoagulated with 1/10th volume of CCD (100 mM Na Citrate and 136 mM glucose, pH 6.5 with HCl) at room temperature (RT). The blood is divided into 2 disposable 60 ml plastic centrifuge tubes and centrifuged for 3 minutes at 1000×g, allowing the centrifuge to coast to a stop (no brake). The platelet rich plasma (PRP) is withdrawn, being careful that no white cells are taken and is placed in a 60 ml centrifuge tube. The tube is immediately placed on ice for 15 minutes. After the 15 minutes at 0° C., 1/2 volume of ice cold CCD is added (i.e. 15 ml CCD/30 ml of PRP). The tube is mixed and the contents are divided equally into two centrifuge tubes. These are then centrifuged at 0° C. for 10 minutes at 900×g (no brake). The supernatant is carefully poured off. The platelet pellet is gently resuspended in 1/2 the original volume of PRP in a 0° C. modified Tangen-Hepes-BSA buffer, pH 7.4, consisting of 145 mM NaCl, 5 mM KCl, 0.05 mM CaCl2, 0.1 mM MgCl2, 11 mM glucose, 15 mM Hepes (N-2-hydroxyethylpiperazine-N'-2-ethanesulfonic acid), 1 mg/ml bovine serum albumin, (pH adjusted with NaOH). The resuspended pellets are combined into 1 centrifuge tube and incubated undisturbed at 37° C. for 30 minutes. After the incubation, the platelet suspension is removed and an aliquot is quickly counted in a hemocytometer or a Coulter® Counter (Coulter Electronics, Hialeah, Fla.). The platelet count is adjusted to 3×10^8 cells/ml with the Tangen-Hepes-BSA buffer.
Compound Testing: Aggregation studies are accomplished using a Payton aggregometer (Payton Scientific, Inc., Buffalo, N.Y.). […] All compounds are diluted to a working concentration of 10^-3 M with double distilled water. The reaction mixture consisted of 400 μl of 3×10^8 /ml washed platelets, 50 μl of buffer (control) or test compound at 10^-3 M with a final concentration of 10^-4 M. Platelets, test compound or buffer are placed in cuvettes in the aggregometer for a 1 minute preincubation before adding thrombin. 50 μl of 0.5 U/ml thrombin is added to cuvettes and the aggregation is monitored for 1 minute, which is the time for maximal aggregation of the platelets. All compounds are run in duplicate. The entire test is run within 3 hours, since this is the maximal viability of the platlets.

For experiment [2], the target named is human platelets in platelet-rich plasma (Homo sapiens, UniProt P05106+P08514). The experiment is described as follows: In-vitro human platelet aggregation in platelet-rich plasma (PRP), ADP-induced. Conditions: for IC50: linear regression of dose response curve. Format: cell-based. How it is done:
In another assay, platelet aggregation is examined in platelet-rich plasma which also is rich in fibrinogen and other plasma proteins.
The syringe is rotated carefully as blood is being drawn to mix the citrate. Platelet-rich plasma (PRP) is prepared by centrifugation at 100×g for 10 minutes at room temperature, allowing the centrifuge to coast to a stop without braking. The PRP is removed from the blood with a plastic pipette and placed in a plastic, capped, 50 ml Corning conical sterile centrifuge tube. The tube is capped and placed at room temperature. Platelet poor plasma (PPP) is prepared by centrifuging the remaining blood at 2000×g for 15 minutes at room temperature allowing the centrifuge to coast to a stop without braking. The PRP is adjusted with PPP to a count of 2-3×10^8 platelets per ml. 400 μl of the PRP preparation and 50 μl of the compound to be tested or saline were preincubated for 1 minute at 37° C. in a Payton aggregometer (Payton Scientific, Inc., Buffalo, NY). 50 μl of adenosine 5'diphosphate (ADP) (50 μM) is added to the cuvettes and the aggregation is monitored for 1 minute. All compounds are tested in duplicate. The entire procedure is run within 3 hours, since this is the maximal viability of the platelets. The saline instead of compound is used to determine the maximal aggregation.

Experiment [3] relates to collagen induced thrombocytopenia (platelet aggregation). The experiment in a line: In vivo rat thrombocytopenia (collagen induced). Conditions: for inhibition in the in vivo thrombocytopenia assay: dose not printed there; for % Inhibition at 1 mg/kg: collagen 60 μg/kg. How it is done:
In yet another test, the effect of the peptide on collagen induced thrombocytopenia (platelet aggregation) is measured in vivo in the art. Again, the % inhibition is determined for the test peptide and compared against a saline or ethanol vehicle in the absence of peptide.
Male rats (Charles River, CRL:CD(SD), 400-450 g) were used. The rats were anesthetized with Na pentabarbital (65 mg/kg, Vet Labs, Limited, Inc., Lenexa, KA). Two incisions were made to expose both jugular veins. Using an infusion pump (Harvard Apparatus, South Natick, Mass.) and a 5 cc syringe with a 19 g. butterfly, the test compound or vehicle was infused into the left jugular vein at a rate of 0.39 ml/min for 3 min. After 2 min of compound/vehicle infusion, collagen (60 μg/kg) (Helena Laboratories,Beaumont, TX) was injected with a 1 ml syringe into the right jugular vein. The body cavity was opened and the vena cava was exposed for blood sampling. One min after the collagen injection, compound infusion was stopped and blood was sampled from the vena cava (within 30 sec) with a 3 cc syringe containing […] of 4.5% EDTA/Tris (0.1M) (pH 7.35) plus 150 μM indomethacin. Platelet rich plasma (PRP) was prepared by centrifuging the blood at 126× g for 10 min. Five μl of PRP was counted in 20 ml of Isoton® III in a Coulter Counter. Percent inhibition of collagen induced aggregation was calculated by comparison of the number of platelets counted in treated animals with numbers for animals receiving no collagen and with counts from animals receiving vehicle and collagen. Estimation of potency was based on inhibition of collagen-induced thrombocytopenia.
Four animals were tested with each compound to give the data shown.

Like-named read-outs stand apart in the source and are kept apart here. Non-standard residues stand in square brackets, D forms with d. Residues, ends and D or L forms follow the SMILES beside them.

human platelets in platelet-rich plasma, sequence (P08514 32-1039): as the sequence (P08514 32-1039) above
human platelets in platelet-rich plasma, sequence (P05106 27-788): as the sequence (P05106 27-788) above

As a reminder, the IC50 is the midpoint of a concentration-inhibition curve. A word on the inhibition: it is the share of the control response that was lost under treatment. Read a high inhibition as strong suppression. With `COc1ccc(C[C@H](NC(=O)[C@H](CC(=O)O)NC(=O)CNC(=O)[C@@H](N)CCCNC(=N)N)C(N)=O)cc1` [RGD(O--methyl-Tyr)--NH2, Arg-Gly-Asp-(O-methyltyrosine)-amide] (H-RGDY(Me)-NH2), the figures for the IC50 in experiment [1] and in experiment [2] (read-out: IC50) were 20 µM and 30 µM, respectively. Further, the inhibition at 100 µM stood at 79% in experiment [1] and 100% in experiment [2] (peptide 10^-4 M).

Regarding `N=C(N)NCCC[C@H](NC(=O)CN)C(=O)NCC(=O)N[C@@H](CC(=O)O)C(=O)N[C@@H](CO)C(=O)N1CCC[C@H]1C(N)=O` [GRGDSP--NH2, reference compound], the inhibition at 100 µM in experiment [1] stood at 55%; in experiment [2] (peptide 10^-4 M), 23%.

Consider `N=C(N)NCCC[C@H](N)C(=O)NCC(=O)N[C@@H](CC(=O)O)C(=O)N[C@@H](CO)C(=O)O` [RGDS, Arg-Gly-Asp-Ser, reference compound], for which the inhibition at 100 µM came out at 71% in experiment [1] and 25% in experiment [2] (peptide 10^-4 M).

As usually defined, the % Inhibition is the percentage by which the read-out fell short of the control. Turning to `CC(=O)N[C@@H](CCCNC(=N)N)C(=O)NCC(=O)N[C@@H](CC(=O)O)C(=O)N[C@@H](Cc1ccc(O)cc1)C(N)=O` [Ac--RGDY--NH2] (Ac-RGDY-NH2), the inhibition at 100 µM in experiment [1] was found to be 68%; in experiment [2] (peptide 10^-4 M), 48%. Further, the “inhibition in the in vivo thrombocytopenia assay” value in experiment [3] is listed as 85%. Further, the “% Inhibition at 1 mg/kg” value in experiment [3] (rat, i.v. infusion) was determined as 85%.

For `N=C(N)NCCC[C@H](N)C(=O)NCC(=O)N[C@@H](CC(=O)O)C(=O)N[C@@H](Cc1ccccc1)C(N)=O` [RGDF--NH2, reference compound] (H-RGDF-NH2), the inhibition at 100 µM in experiment [1] turned out to be 77%; in experiment [2] (peptide 10^-4 M), 100%.

On to `COc1ccc(C[C@H](NC(=O)[C@H](CC(=O)O)NC(=O)CNC(=O)[C@H](CCCNC(=N)N)NC(C)=O)C(N)=O)cc1` [Ac--RGD(O--methyl-Tyr)--NH2, acetyl-Arg-Gly-Asp-(O-methyltyrosine)-amide] (Ac-RGDY(Me)-NH2), for which the IC50 in experiment [1] and in experiment [2] (read-out: IC50) was 20 µM throughout. The values for the inhibition at 100 µM in experiment [1] and in experiment [2] (peptide 10^-4 M) were 78% and 100%, respectively. For the same compound, the “% Inhibition at 1 mg/kg” value in experiment [3] (rat, i.v. infusion) is 86%.

Regarding `COc1cc(C)c(CC(NC(=O)[C@H](CC(=O)O)NC(=O)CNC(=O)[C@@H](N)CCCNC(=N)N)C(N)=O)c(C)c1` (stereo partly drawn) [RGD(2,6-dimethyl-O--methyl-Tyr)--NH2, Arg-Gly-Asp-(2,6-dimethyl-O-methyltyrosine)amide], the results for the IC50 in experiment [1] and in experiment [2] were 20 µM and 90 µM, respectively. Besides, the inhibition at 100 µM in experiment [1] worked out at 78%; in experiment [2] (peptide 10^-4 M), 53%.

Compound `CCOc1ccc(C[C@H](NC(=O)[C@H](CC(=O)O)NC(=O)CNC(=O)[C@@H](N)CCCNC(=N)N)C(N)=O)cc1` [RGD(O--ethyl-Tyr)--NH2, Arg-Gly-Asp-(O-ethyltyrosine)-amide] (H-RGDY(Et)-NH2) gave an inhibition at 100 µM in experiment [1] of 54%.

In experiment [2] (peptide 10^-4 M), `COc1ccc(C[C@H](NC(=O)[C@H](CC(=O)O)NC(=O)CNC(=O)[C@@H](CCCNC(=N)N)NC(C)=O)C(N)=O)cc1` [Ac--(D-Arg)GD(O--methyl-Tyr)--NH2, acetyl-(D-Arg)-Gly-Asp-(O-methyltyrosine)-amide] (Ac-[dR]GDY(Me)-NH2) showed an inhibition at 100 µM of 71%.

For the compound `NC(=O)[C@H](Cc1ccccc1)NC(=O)[C@H](CC(=O)O)NC(=O)CNC(=O)[C@@H](N)CCCN=C(N)N` [RGDF--NH2, reference compound] (H-RGDF-NH2), the results for the IC50 in experiment [1] and in experiment [2] (read-out: IC50) were 10 µM and 20 µM, respectively.

In the case of `COc1ccc(CC(NC(=O)[C@H](CC(=O)O)NC(=O)CNC(=O)[C@@H](N)CCCNC(=N)N)C(N)=O)c2ccccc12` (stereo partly drawn) [RGD(4-methoxy-1-naphthyl-Ala)--NH2, Arg-Gly-Asp-(4-methoxy-1-naphthylalanine)-amide], the IC50 in experiment [2] (read-out: IC50) turned out to be 10 µM. The compound also registered an inhibition at 100 µM in experiment [2] (peptide 10^-4 M) of 100%.

`CC(=O)N[C@@H](CCCN=C(N)N)C(=O)NCC(=O)N[C@@H](CC(=O)O)C(=O)N[C@@H](Cc1ccc(O)cc1)C(N)=O` [Ac--RGDY--NH2] (Ac-RGDY-NH2): it took 50 µM to reach half-maximal inhibition in experiment [1] (IC50).

As for “Arg-Gly-Asp-(p-phenyl-phenylalanine)-amide [RGD(p-phenyl-Phe)--NH2]”, the “% Inhibition at 10^-4 M” value in experiment [2] (peptide 10^-4 M) was determined as 100%.

With `COc1ccc(C[C@H](NC(=O)[C@H](CC(=O)O)NC(=O)CNC(=O)CCCCNC(=N)N)C(N)=O)cc1` [des-NH2 --RGD(O--methyl-Tyr)--NH2, des-amino-Arg-Gly-Asp-(O-methyltyrosine)-amide], the IC50 in experiment [1] was determined as 10 µM; in experiment [2] (read-out: IC50), 20 µM. The inhibition at 100 µM in experiment [1] is 90%; in experiment [2] (peptide 10^-4 M), 100%.

Consider `COc1ccc(C[C@H](NC(=O)[C@H](CC(=O)O)NC(=O)CNC(=O)CCCCCNC(=N)N)C(N)=O)cc1` [des-amino-(homoarginine)-Gly-Asp-(O-methyltyrosine)-amide], for which the IC50 in experiment [1] was 10 µM; in experiment [2] (read-out: IC50), 20 µM. Also, the values for the inhibition at 100 µM in experiment [1] and in experiment [2] (peptide 10^-4 M) were 82% and 100%, respectively.

`N=C(N)NCCC[C@H](N)C(=O)NCC(=O)N[C@@H](CC(=O)O)C(=O)N[C@@H](Cc1ccc(O)cc1)C(N)=O` [RGDY--NH2, reference compound] (H-RGDY-NH2) came in with an inhibition at 100 µM in experiment [1] of 45%. For the same compound, the “inhibition in the in vivo thrombocytopenia assay” value in experiment [3] was determined as 19%. Moreover, in experiment [3] (rat, i.v. infusion), the “% Inhibition at 1 mg/kg” value turned out to be 19 ± 12%. In addition, in experiment [3] (rat, i.v. infusion, collagen induced thrombocytopenia), the “Maximum Inhibition %” value worked out at 20%.

For the origin of these results see patent US4857508A, “Novel platelet-aggregation inhibitor peptide derivatives” (Monsanto Company, priority 1987, dated 1989).
